Test results taken from US20170190671A1, “BIS(ARYL)CATECHOL DERIVATIVES AS HERBICIDES” (E I DU PONT DE NEMOURS AND COMPANY, priority 2014, published 2017).

Experiments:
Test in all cases: Test C postemergence
Assay type in all cases: in vivo
kochia (Kochia scoparia) = conditions: Bassia scoparia, post-emergence, Postemergence, scale 0 to 100, read-out: Plant response rating, Kochia
Outline: (§1)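 Greenhouse test; preemergence to seeds in loam/sand soil, or postemergence spray to 2-18 cm, 1- to 4-leaf plants in peat/vermiculite medium; compound in non-phytotoxic solvent plus surfactant. Visual rating vs controls at 13-15 d, 0 = no effect, 100 = complete control.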

[1] = system: barnyardgrass (Echinochloa crus-galli); conditions: Echinochloa crus-galli, post-emergence, Postemergence, scale 0 to 100, read-out: Plant response rating, Barnyardgrass
Outline: as §1

[2] = system: Italian ryegrass (Lolium multiflorum); conditions: Lolium multiflorum, post-emergence, 336 h, Postemergence, scale 0 to 100, read-out: Plant response rating, Ryegrass, Italian
Outline: as §1

[3] = system: velvetleaf (Abutilon theophrasti); conditions: Abutilon theophrasti, post-emergence, Postemergence, scale 0 to 100, read-out: Plant response rating, Velvetleaf
Outline: as §1

[4] = system: morningglory (Ipomoea coccinea); conditions: Ipomoea, post-emergence, 336 h, Postemergence, scale 0 to 100, read-out: Plant response rating, Morningglory
Outline: as §1

[5] = system: chickweed (common chickweed, Stellaria media); conditions: Stellaria media, post-emergence, Postemergence, scale 0 to 100, read-out: Plant response rating, Chickweed
Outline: as §1

[6] = system: yellow nutsedge (Cyperus esculentus); conditions: Cyperus, post-emergence, 336 h, Postemergence, scale 0 to 100, read-out: Plant response rating, Nutsedge, Yellow
Outline: as §1

wild oat (Avena fatua) = conditions: Avena fatua, post-emergence, Postemergence, scale 0 to 100, read-out: Plant response rating, Oat, Wild
Outline: as §1

[7] = system: johnsongrass (Sorghum halepense); conditions: Sorghum halepense, post-emergence, 336 h, Postemergence, scale 0 to 100, read-out: Plant response rating, Johnsongrass
Outline: as §1

[8] = system: pigweed (Amaranthus retroflexus); conditions: Amaranthus retroflexus, post-emergence, 336 h, Postemergence, scale 0 to 100, read-out: Plant response rating, Pigweed
Outline: as §1

[9] = system: giant foxtail (Setaria faberii); conditions: Setaria faberi, post-emergence, 336 h, Postemergence, scale 0 to 100, read-out: Plant response rating, Foxtail, Giant
Outline: as §1

[10] = system: winter wheat (Triticum aestivum); conditions: Triticum aestivum, post-emergence, 336 h, Postemergence, scale 0 to 100, read-out: Plant response rating, Wheat
Outline: as §1

[11] = system: large (Lg) crabgrass (Digitaria sanguinalis); conditions: Digitaria sanguinalis, post-emergence, 336 h, Postemergence, scale 0 to 100, read-out: Plant response rating, Crabgrass, Large
Outline: as §1

[12] = system: oilseed rape (Brassica napus); conditions: Brassica napus, post-emergence, Postemergence, scale 0 to 100, read-out: Plant response rating, Oilseed Rape
Outline: as §1

[13] = system: blackgrass (Alopecurus myosuroides); conditions: Alopecurus myosuroides, post-emergence, 336 h, Postemergence, scale 0 to 100, read-out: Plant response rating, Blackgrass
Outline: as §1

## Clc1cnc(Oc2cccc(Cl)c2Oc2ncc(Br)cn2)nc1 [Compound 17, 5-bromo-2-[2-chloro-6-[(5-chloro-2-pyrimidinyl)oxy]phenoxy]pyrimidine]
Kochia (Kochia scoparia); 31 g ai/ha
  pest or weed control at 31 g/ha: 90%
Kochia (Kochia scoparia); 62 g ai/ha
  pest or weed control at 62 g/ha: 90%
Kochia (Kochia scoparia); 125 g ai/ha
  pest or weed control at 125 g/ha: 95%
Kochia (Kochia scoparia); 250 g ai/ha
  pest or weed control at 250 g/ha: 95%
[1]; 31 g ai/ha
  pest or weed control at 31 g/ha: 5%
[1]; 62 g ai/ha
  pest or weed control at 62 g/ha: 5%
[1]; 125 g ai/ha
  pest or weed control at 125 g/ha: 10%
[1]; 250 g ai/ha
  pest or weed control at 250 g/ha: 10%
[2]; 31 g ai/ha
  pest or weed control at 31 g/ha: 0%
[2]; 62 g ai/ha
  pest or weed control at 62 g/ha: 0%
[2]; 125 g ai/ha
  pest or weed control at 125 g/ha: 5%
[2]; 250 g ai/ha
  pest or weed control at 250 g/ha: 15%
[3]; 31 g ai/ha
  pest or weed control at 31 g/ha: 30%
[3]; 62 g ai/ha
  pest or weed control at 62 g/ha: 35%
[3]; 125 g ai/ha
  pest or weed control at 125 g/ha: 40%
[3]; 250 g ai/ha
  pest or weed control at 250 g/ha: 70%
[4]; 31 g ai/ha
  pest or weed control at 31 g/ha: 90%
[4]; 62 g ai/ha
  pest or weed control at 62 g/ha: 90%
[4]; 125 g ai/ha
  pest or weed control at 125 g/ha: 85%
[4]; 250 g ai/ha
  pest or weed control at 250 g/ha: 70%
[5]; 31 g ai/ha
  pest or weed control at 31 g/ha: 40%
[5]; 62 g ai/ha
  pest or weed control at 62 g/ha: 70%
[5]; 125 g ai/ha
  pest or weed control at 125 g/ha: 60%
[5]; 250 g ai/ha
  pest or weed control at 250 g/ha: 85%
[6]; 31 g ai/ha
  pest or weed control at 31 g/ha: 5%
[6]; 62 g ai/ha
  pest or weed control at 62 g/ha: 5%
[6]; 125 g ai/ha
  pest or weed control at 125 g/ha: 5%
[6]; 250 g ai/ha
  pest or weed control at 250 g/ha: 20%
Wild oat (Avena fatua); 31 g ai/ha
  pest or weed control at 31 g/ha: 0%
Wild oat (Avena fatua); 62 g ai/ha
  pest or weed control at 62 g/ha: 0%
Wild oat (Avena fatua); 125 g ai/ha
  pest or weed control at 125 g/ha: 5%
Wild oat (Avena fatua); 250 g ai/ha
  pest or weed control at 250 g/ha: 15%
[7]; 31 g ai/ha
  pest or weed control at 31 g/ha: 5%
[7]; 62 g ai/ha
  pest or weed control at 62 g/ha: 5%
[7]; 125 g ai/ha
  pest or weed control at 125 g/ha: 5%
[7]; 250 g ai/ha
  pest or weed control at 250 g/ha: 10%
[8]; 31 g ai/ha
  pest or weed control at 31 g/ha: 90%
[8]; 62 g ai/ha
  pest or weed control at 62 g/ha: 95%
[8]; 125 g ai/ha
  pest or weed control at 125 g/ha: 98%
[8]; 250 g ai/ha
  pest or weed control at 250 g/ha: 98%
[9]; 31 g ai/ha
  pest or weed control at 31 g/ha: 5%
[9]; 62 g ai/ha
  pest or weed control at 62 g/ha: 15%
[9]; 125 g ai/ha
  pest or weed control at 125 g/ha: 10%
[9]; 250 g ai/ha
  pest or weed control at 250 g/ha: 40%
[10]; 31 g ai/ha
  plant injury at 31 g/ha: 0%
[10]; 62 g ai/ha
  plant injury at 62 g/ha: 0%
[10]; 125 g ai/ha
  plant injury at 125 g/ha: 0%
[10]; 250 g ai/ha
  plant injury at 250 g/ha: 0%
[11]; 31 g ai/ha
  pest or weed control at 31 g/ha: 5%
[11]; 62 g ai/ha
  pest or weed control at 62 g/ha: 5%
[11]; 125 g ai/ha
  pest or weed control at 125 g/ha: 10%
[11]; 250 g ai/ha
  pest or weed control at 250 g/ha: 10%
[12]; 31 g ai/ha
  plant injury at 31 g/ha: 50%
[12]; 62 g ai/ha
  plant injury at 62 g/ha: 50%
[12]; 125 g ai/ha
  plant injury at 125 g/ha: 80%
[12]; 250 g ai/ha
  plant injury at 250 g/ha: 40%
[13]; 31 g ai/ha
  pest or weed control at 31 g/ha: 5%
[13]; 62 g ai/ha
  pest or weed control at 62 g/ha: 5%
[13]; 125 g ai/ha
  pest or weed control at 125 g/ha: 15%
[13]; 250 g ai/ha
  pest or weed control at 250 g/ha: 15%
